# Assay results as given in patent EP3720857B1, “2-OXO-5H-CHROMENO[4,3-B]PYRIDINES FOR USE IN THE TREATMENT OF HEPATITIS B” (Galapagos NV, priority 2017, dated 2019).
# Tested on: hepatitis virus B (HBV) infection
# Assay: HepG2 NTCP assay (HBcAg staining as marker of HBV infection)
# Assay type: cell-based
# Details: HepG2-NTCP cells infected with HBV, HBV core antigen (HBcAg) as marker of infection
# Description: The principle of the hepG2-NTCP assay is to measure the effect of a test compound on the inhibition of the hepatitis virus B (HBV) infection compared to a reference compound. To be able to infect the hepatocellular carcinoma cells (HepG2) with HBV, HepG2 cells were stably transfected with the Na+-taurocholate co-transporting polypeptide (NTCP) receptor, also referred to as Sodium/bile acid cotransporter (SLC10A1), which is necessary for HBV infection. In this assay the HBV core antigen (HBcAg) is used as a marker of HBV infection. Nuclei count is used as an indication for compound toxicity.
# On day one, HepG2-NTCP cells ((Ni et al., 2014)) are seeded at 5000 cells in 50 µL per well in assay medium (DMEM high glucose supplemented with 10% non-heat inactivated (non HI) fetal bovine serum (FBS), 1% P/S, 1% L-glutamine and 1% MEM NEAA) in 384 well plate and incubated at 37°C, 5% CO2 overnight.
# Compounds are prepared as 10 point serial dilutions using 1/3 dilution steps in 100% DMSO starting from 10 mM highest concentration, unless otherwise requested for very potent compounds, which started from 5mM or 1mM stock. Compounds are further diluted 1/500 in assay medium.
# A negative control (vehicle: 24 wells with 0.2% DMSO) and positive control (24 wells with 100nM Myrcludex B (Cas no.: 406461-66-3), 0.2% DMSO and in 10 point DR) are included in the experiments.
# On the second day, 40µl medium is removed from the cells with the plate washer (Select 405 microplate washer, Biotek). 15 µL of diluted compound series is transferred to the assay plate and cells are infected with 15 µL of HBV mix (HBV virus, 4%PEG, 1%DMSO in assay medium). The infection is performed in assay medium containing final concentration of 1% DMSO. The assay plate is incubated at 37°C, 5% CO2 overnight.
# The next day, 30µl compound and HBV mix are removed from the assay plate with the plate washer and 30 µL of compound series diluted 1/500 in assay medium containing final concentration of 2.5% DMSO is added to the cell assay plate. The assay plate is incubated at 37°C, 5% CO2 for 5 days.
# After 5 days of incubation, supernatant is removed from the cells with the plate washer. Cells are fixed with 50 µL of 3.7% formaldehyde added with the Well mate (Matrix technologies) and incubated for 30 min at room temperature. After fixation, cells are washed four times with phosphate buffer saline (1xPBS, 137mM NaCl, 10mM na2HPO4, 2.7mM KCl, 1.8mM KH2PO4 at pH7.4). The cells are finally subjected to HBc staining.
# First, the assay plate is blocked with blocking buffer (2%FBS, 3% BSA, 0.2% TritonX100 in PBS) for 1 h at room temperature (optional to block overnight at 4°C).
# After 4 washes of PBST (1XPBS + 0.05% Tween) with the plate washer, the assay plate is incubated with 30 µL diluted primary antibody (1/700 Rabbit anti-HBV core antigen, Dako, B0586 or 1/350 Rabbit anti HBV core antigen, Invitrogen, PA516368) in blocking buffer and incubated for 90 min at room temperature.
# After 4 washes of PBST with the plate washer, the assay plate is incubated with 50 µL of secondary antibody (Donkey-anti-rabbit Alexa 488 antibody, Lifetechnologies A21206) 1/500 diluted in blocking buffer and incubated for 60 min at room temperature and in the dark.
# The assay plate is washed 4 times with PBST on the plate washer and incubated with 50µL of DAPI (Sigma D9542, stock 5mg/mL) 1/10000 diluted in PBS for 15-30 min at room temperature and in the dark. The assay plate is now ready for read out on the InCell Analyzer 2200 (GE Healthcare).
# Raw data are generated following read-out performed on InCell 2200 and are imported into the galapagos LIMS for automated calculation of percentage inhibition (PIN) and toxicity by nuclei count, using the control wells mentioned above, and creation of Dose Response curves. Table V. Hepg2 NTCP assay activity of illustrative compounds of the invention
row,Structure (SMILES),IC50 [nM]
1,"CC(C)C1Oc2cc(OCC3COC3)c(Cl)cc2-c2c1cc(C(=O)O)c(=O)n2C1CC1 (centres unmarked) [Compound 5, 9-chloro-1-cyclopropyl-5-isopropyl-8-(oxetan-3-ylmethoxy)-2-oxo-5H-chromeno[4,3-b]pyridine-3-carboxylic acid]",0.001 to 1
2,"CC(C)C1Oc2cc(OCC3COCCO3)c(Cl)cc2-c2c1cc(C(=O)O)c(=O)n2C1CC1 (centres unmarked) [Compound 7, 9-chloro-1-cyclopropyl-8-(1,4-dioxan-2-ylmethoxy)-5-isopropyl-2-oxo-5H-chromeno[4,3-b]pyridine-3-carboxylic acid]",0.001 to 1
3,"COCCCOc1ccc2c(c1Cl)OC(C(C)C)c1cc(C(=O)O)c(=O)n(C3CC3)c1-2 (centres unmarked) [Compound 8, 7-chloro-1-cyclopropyl-5-isopropyl-8-(3-methoxypropoxy) -2-oxo-5H-chromeno[4,3-b]pyridine-3-carboxylic acid]",1 to 20
4,"COc1cc2c(cc1OC)-c1c(cc(C(=O)O)c(=O)n1C1CC1)C(C(C)(C)C)O2 (centres unmarked) [Compound 9, 5-tert-butyl-1-cyclopropyl-8,9-dimethoxy-2-oxo-5H-chromeno[4,3-b]pyridine-3-carboxylic acid]",1 to 20
5,"COCCCOc1cc2c(cc1OC)-c1c(cc(C(=O)O)c(=O)n1C1CC1)C(C(C)C)O2 (centres unmarked) [Compound 10, 1-cyclopropyl-5-isopropyl-9-methoxy-8-(3-methoxypropoxy) -2-oxo-5H-chromeno[4,3-b]pyridine-3-carboxylic acid]",1 to 20
6,"CCC1Oc2cc(OCCCOC)c(Cl)cc2-c2c1cc(C(=O)O)c(=O)n2C1CC1 (centres unmarked) [Compound 11, 9-chloro-1-cyclopropyl-5-ethyl-8-(3-methoxypropoxy) -2-oxo-5H-chromeno[4,3-b]pyridine-3-carboxylic acid]",0.001 to 1
7,"CCC1Oc2cc(OCCCOC)c(OC)cc2-c2c1cc(C(=O)O)c(=O)n2C1CC1 (centres unmarked) [Compound 12, 1-cyclopropyl-5-ethyl-9-methoxy-8-(3-methoxypropoxy) -2-oxo-5H-chromeno[4,3-b]pyridine-3-carboxylic acid]",1 to 20
8,"COCCCOc1cc2c(cc1Cl)-c1c(cc(C(=O)O)c(=O)n1C1CC1)C(C1COC1)O2 (centres unmarked) [Compound 13, 9-chloro-1-cyclopropyl-8-(3-methoxypropoxy) -5-(oxetan-3-yl)-2-oxo-5H-chromeno[4,3-b] pyridine-3-carboxylic acid]",0.001 to 1
9,"COCCCOc1cc2c(cc1Cl)-c1c(cc(C(=O)O)c(=O)n1C1CC1)C(C)(C)O2 [Compound 14, 9-chloro-1-cyclopropyl-8-(3-methoxypropoxy) -5,5-dimethyl-2-oxo-chromeno [4,3-b]pyridine-3-carboxylic acid]",1 to 20
10,"CCC1Oc2cc(OC)c(OC)cc2-c2c1cc(C(=O)O)c(=O)n2C1CC1 (centres unmarked) [Compound 15, 1-cyclopropyl-5-ethyl-8,9-dimethoxy-2-oxo-5H-chromeno[4,3-b]pyridine-3-carboxylic acid]",20 to 100
11,"COc1cc2c(cc1OC)-c1c(cc(C(=O)O)c(=O)n1C1CC1)C(CO)O2 (centres unmarked) [Compound 18, 1-cyclopropyl-5-(hydroxymethyl)-8,9-dimethoxy-2-oxo-5H-chromeno[4,3-b]pyridine-3-carboxylic acid]",20 to 100
12,"[2H]C([2H])([2H])Oc1cc2c(cc1OC)-c1c(cc(C(=O)O)c(=O)n1C1CC1)C(C(C)C)O2 (centres unmarked) [Compound 20, 1-cyclopropyl-5-isopropyl-9-methoxy-2-oxo-8-(trideuteriomethoxy)-5H-chromeno[4,3-b]pyridine-3-carboxylic acid]",1 to 20
13,"COc1cc2c(cc1Cl)-c1c(cc(C(=O)O)c(=O)n1C1CC1)C(C1COC1)O2 (centres unmarked) [Compound 21, 9-chloro-1-cyclopropyl-8-methoxy-5-(oxetan-3-yl)-2-oxo-5H-chromeno[4,3-b]pyridine-3-carboxylic acid]",1 to 20
14,"COCCCOc1cc2c(cc1Cl)-c1c(cc(C(=O)O)c(=O)n1C1CC1)C(C1(C#N)CC1)O2 (centres unmarked) [Compound 22, 9-chloro-5-(1-cyanocyclopropyl)-1-cyclopropyl-8-(3-methoxypropoxy) -2-oxo-5H-chromeno[4,3-b]pyridine-3-carboxylic acid]",0.001 to 1
